Structures are written as SMILES. Values after ≈ are worked out from the molar mass of the structure shown. Some results are limits rather than exact numbers.

The results in this text go back to ChEMBL document CHEMBL5096146, “Porphyrin and phthalocyanine photosensitizers designed for targeted photodynamic therapy of colorectal cancer” (Bioorg Med Chem, 2021).

Test [1] has as its system WiDr. Nature of the test: Photodynamic cytotoxicity against human WiDr cells assessed as reduction in cell viability at 50 nM incubated for 24 hrs followed by compound washout and 7.5 mW/cm2 light irradiation measured after 24 hrs by MTT assay relative to control. It is filed as functional. On the technique in general: Formazan colour is commonly taken as a measure of viable cells.

For test [2], the system named is WiDr. Nature of the test: Photodynamic cytotoxicity against human WiDr cells assessed as cell growth inhibition measured after 24 hrs of 10J light irradiation by flow cytometry. It is filed as functional, cell-based. As to conditions: light or radiation study. (A flow cytometer gives signals particle by particle.)
Test [3] deals with WiDr. Nature of the test: Photodynamic cytotoxicity against human WiDr cells assessed as cell growth inhibition measured after 72 hrs of 10J light irradiation by flow cytometry. The format is functional, cell-based. To be noted: light or radiation study.
The test system of test [4] is WiDr. Nature of the test: Photocytotoxicity against human WiDr cells assessed as lethal dose incubated for 18 hrs followed by replacement of medium containing compound with 48 hrs incubation and subsequent light irradiation of 13.5 mW/cm2 at 435 nm measured after 48 hrs by MTT assay. The format is functional. As to conditions: light or radiation study, read-out: LD50 (the source's name).

In test [5] the test system is HT-29. Briefly: Photodynamic cytotoxicity against human HT-29 cells assessed as reduction in cell viability incubated for 3 hrs followed by fresh medium replacement and subsequent red LED irradiation measured after 24 hrs by MTT assay relative to control. The format is functional.
Test [6] deals with HT-29. Briefly: Photodynamic cytotoxicity against human HT-29 cells assessed as reduction in cell viability incubated for 3 hrs followed by fresh medium replacement and subsequent white LED irradiation measured after 24 hrs by MTT assay relative to control. The format is functional.
In test [7] the test system is HT-29. Nature of the test: Antitumor activity against human HT-29 cells xenografted in BALB/c mouse assessed as tumor growth inhibition at 250 mg/kg, ip followed by LED irradiation with repeated compound irradiation for thrice upto 3 weeks relative to control. The format is functional. To be noted: HT-29, light or radiation study, 504 h, read-out: TGI.
The subject of test [8] is HT-29. Nature of the test: Photodynamic cytotoxicity against human HT-29 cells assessed as reduction in cell viability incubated for 3 hrs followed by fresh medium replacement and subsequent blue LED irradiation measured after 24 hrs by MTT assay relative to control. It is filed as functional.
Test [9] deals with HT-29. Briefly: Photocytotoxicity against human HT-29 cells assessed as lethal dose incubated for 4 hrs followed by 3 J/cm2 LED irradiation and subsequent compound replenishment measured after 20 hrs by MTT assay. The format is functional.
The test system of test [10] is HT-29. Briefly: Photodynamic cytotoxicity against human HT-29 cells assessed as reduction in cell viability at 19.4 J/cm2 light irradiation >570 nm followed by immediate fresh medium replacement measured after 24 hrs by MTT assay relative to control. It is filed as functional.
Test [11] has as its system HT-29. Briefly: Photodynamic cytotoxicity against human HT-29 cells assessed as reduction in cell viability at 19.4 J/cm2 light irradiation followed by immediate fresh medium replacement measured after 24 hrs by MTT assay relative to control. The format is functional.

In the case of `Oc1ccc(Cl)c(-c2c3nc(cc4ccc([nH]4)c(-c4cc(O)ccc4Cl)c4nc(cc5ccc2[nH]5)C=C4)C=C3)c1`, the Activity in the test with WiDr [1] was over 50%.

In the case of `Oc1cccc(-c2c3nc(cc4ccc([nH]4)c(-c4cccc(O)c4I)c4nc(cc5ccc2[nH]5)C=C4)C=C3)c1I`, the Activity in the test on WiDr [1] is reported as over 50%.

`Oc1cccc(-c2c3nc(cc4ccc([nH]4)c(-c4cccc(O)c4)c4nc(cc5ccc2[nH]5)C=C4)C=C3)c1`: in the test with WiDr [1], the Activity is over 50%.

For the compound `Oc1ccc(Br)c(-c2c3nc(c(-c4cc(O)ccc4Br)c4ccc([nH]4)c(-c4cc(O)ccc4Br)c4nc(c(-c5cc(O)ccc5Br)c5ccc2[nH]5)C=C4)C=C3)c1`, the IC50 in the test with WiDr [2] came out at 464 nM; in the test on WiDr [3], 620 nM.

For `Oc1ccc(Br)c(-c2c3nc(cc4ccc([nH]4)c(-c4cc(O)ccc4Br)c4nc(cc5ccc2[nH]5)C=C4)C=C3)c1`, in the test on WiDr [1], the Activity is listed as over 50%. Besides, the IC50 in the test with WiDr [2] is 180 nM; in the test on WiDr [3], 140 nM.

`C[N+](C)(C)c1ccc(-c2c3nc(c(-c4ccc([N+](C)(C)C)cc4)c4ccc([nH]4)c(-c4ccc([N+](C)(C)C)cc4)c4nc(c(-c5ccc([N+](C)(C)C)cc5)c5ccc2[nH]5)C=C4)C=C3)cc1`: in the test on WiDr [4], the CC50 was 2000 nM.

On to `C=CC1=C(C)c2cc3[nH]c(cc4nc(cc5[nH]c(cc1n2)c(C)c5C=C)C(C)=C4CCC(=O)O)c(CCC(=O)O)c3C`, for which the Activity in the test with HT-29 [5] came out at 20%; in the test with HT-29 [6], 40%; with HT-29 [8], 40%. Besides, in the test with HT-29 [7], the inhibition in vivo at 250 mg/kg was found to be 88%.

As for `O=C(O)c1ccc(-c2c3nc(c(-c4ccc(C(=O)O)cc4)c4ccc([nH]4)c(-c4ccc(C(=O)O)cc4)c4nc(c(-c5ccc(C(=O)O)cc5)c5ccc2[nH]5)C=C4)C=C3)cc1`, the CC50 with WiDr [4] was 15000 nM.

As to `O=S(=O)(O)c1ccc(-c2c3nc(c(-c4ccc(S(=O)(=O)O)cc4)c4ccc([nH]4)c(-c4ccc(S(=O)(=O)O)cc4)c4nc(c(-c5ccc(S(=O)(=O)O)cc5)c5ccc2[nH]5)C=C4)C=C3)cc1`, the CC50 in the test with WiDr [4] is 100000 nM.

On to `Oc1cccc(-c2c3nc(c(-c4cccc(O)c4)c4ccc([nH]4)c(-c4cccc(O)c4)c4nc(c(-c5cccc(O)c5)c5ccc2[nH]5)CC4)C=C3)c1` [TEMOPORFIN], for which, in the test on HT-29 [9], the LD70 was determined as 0.6 µg/mL. Further, the CC50 in the test with HT-29 [9] (Homo sapiens, HT-29, light or radiation study, read-out: LD50 (the source's name)) is 0.3 µg/mL (≈ 0.441 µM).

As to `Oc1cc(-c2c3nc(cc4ccc([nH]4)c(-c4ccc(I)c(O)c4)c4nc(cc5ccc2[nH]5)C=C4)C=C3)ccc1I`, in the test with WiDr [1], the Activity is reported as over 50%.

Consider `C1=Cc2nc1c(-c1ccc3ccccc3n1)c1ccc([nH]1)c(-c1ccc3ccccc3n1)c1nc(c(-c3ccc4ccccc4n3)c3ccc([nH]3)c2-c2ccc3ccccc3n2)C=C1`, for which the figures for the Activity with HT-29 [10] and in the test with HT-29 [11] were 10% and 80%, respectively.

On to `Oc1ccc(-c2c3nc(c(-c4ccc(O)cc4)c4ccc([nH]4)c(-c4ccc(O)cc4)c4nc(c(-c5ccc(O)cc5)c5ccc2[nH]5)C=C4)C=C3)cc1`, for which the CC50 in the test with WiDr [4] was 200 nM.

Broadly, the IC50 is the concentration that gives 50% inhibition.
